This note sets out measurements from patent US20230321122A1, “ACTIVE AGENT MODULATING THE ACTIVITY OF AN ION CHANNEL FOR USE IN HAIR GROWTH REGULATION” (CUTANEON - Skin & Hair Innovations GmbH, priority 2020, published 2023).

Assay [1] relates to human hair follicles. The assay can be described thus: Human hair follicle organ culture, hair cycle staging. Format: cell-based. The settings on record: for hair cycle stage of hair follicles (anagen) vs vehicle: 12.5 (unit not given), day 3 and day 6, FIGS. 8, 9. The protocol: Human anagen hair follicles were isolated from the skin of males undergoing hair transplantation with written informed consent. Microdissected hair follicles were amputated at the level of dermal-subcutaneous junction and equilibrated in Williams' E medium (WEM) (Life Technologies) supplemented with 2 mM L-glutamine (Life Technologies), 10 ng/ml hydrocortisone, 10 μg/ml insulin, and antibiotics (all from Sigma-Aldrich). After 24 hours, growing undamaged anagen hair follicles were selected for treatment with DMP Human hair follicles were cultured in presence of DMP (12.5 The culture medium was changed every two days with addition of DMP. Hair follicles were photographed and percentage of hair follicles at different stages of hair cycle were calculated at day 3 and day 6 of the treatment and compared to vehicle.
Human anagen hair follicles were isolated from the skin of males undergoing hair transplantation with written informed consent. […] After 24 hours, growing undamaged anagen hair follicles were selected for treatment with 2-Hep (12.5 The culture medium was changed every two days with addition of 2-Hep. Hair follicles were photographed and percentage of hair follicles at different stages of hair cycle were calculated at day 3 and day 6 of the treatment and compared to vehicle.
Human anagen hair follicles were isolated from the skin of males undergoing hair transplantation with written informed consent. […] After 24 hours, growing undamaged anagen hair follicles were selected for treatment with human hair follicles were cultured in presence of TPPO (150 The culture medium was changed every two days with addition of TPPO. Hair follicles were photographed and percentage of hair follicles at different stages of hair cycle were calculated at day 3 and day 6 of the treatment and compared to vehicle.

For assay [2], the system named is human hair follicles. The assay can be described thus: Quantitative PCR gene expression in compound-treated human hair follicles. Type of assay: cell-based. As to conditions: 6 hours, vs vehicle. How it is done: Total RNA was isolated using PICOPURE® RNA Isolation Kit (Applied BioSystems) according to the manufacturer's protocol. After isolation, 100 ng of total RNA was reverse-transcribed into cDNA using a TETRO® cDNA synthesis kit (Bioline). Quantitative-PCR was performed using the StepOne Plus real time PCR system (Applied Biosystems) using TAQMAN® fast advanced master mix and TAQMAN® probes for LEF1, IGF1, TGFB2 AND SFRP1 (Applied Biosystems). The amount of the aforementioned transcripts was normalized to the expression of reference gene (GAPDH) using the ΔΔCt method. Results were performed in triplicate for each experiment.
For gene expression analysis, human hair follicles were microdissected as above and treated with 2-Hep (12.5 uM) for 6 hours. Following the treatment, total RNA was isolated and processed for cDNA synthesis as above. Quantitate PCR was performed using TAQMAN® assay with probes for TGFB2 and AXIN2 (Applied Biosystems).
For gene expression analysis, human hair follicles were microdissected as above and treated with TPPO (150 uM) for 6 hours. Following the treatment, total RNA was isolated and processed for cDNA synthesis as above. Quantitate PCR was performed using TAQMAN® assay with probes for IGF1, FGF7 and TGFB2 (Applied Biosystems).

Consider `Cc1cnc(C)cn1` [DMP, 2,5-dimethylpyrazine], for which, in the assay with human hair follicles [1], the “hair cycle stage of hair follicles (anagen) vs vehicle” value was “prolongs anagen”.
Regarding `CCCCCC(C)=O` [2-Hep, 2-heptanone], in the assay with human hair follicles [2] (12.5 uM, FIG. 10), the “expression of AXIN2” value was “up-regulated” and the “expression of TGFB2” value is reported as “down-regulated”. In addition, in the assay on human hair follicles [1], the “hair cycle stage of hair follicles (anagen) vs vehicle” value is “prolongs anagen”.
With `O=P(c1ccccc1)(c1ccccc1)c1ccccc1` [TPPO, triphenylphosphine oxide], in the assay on human hair follicles [2] (150 uM, FIG. 12), the TGFB2 transcript result is “up-regulated”, the “expression level of FGF7” value is “significantly down-regulated” and the “expression level of IGF1” value is listed as “significantly down-regulated”. Further, the “hair cycle stage of hair follicles (catagen) vs vehicle” value in the assay with human hair follicles [1] (150 (unit not given), day 3 and day 6, FIG. 11) is on record as “promotes catagen”.
